≈ marks a conversion by molar mass, not a printed value.
Legend:
[1] = molecular target: T1, recombinant Pseudomonas aeruginosa LpxC (Pseudomonas aeruginosa, UniProt P47205); experiment: Inhibition of enzymatic activity of recombinant Pseudomonas aeruginosa LpxC in vitro; type: biochemical; settings: 5 nM LpxC; substrate UDP-3-O—(R-3-hydroxydecanoyl)-GlcNAc; 25 °C, 120 minutes; fluorescamine readout
T1 construct: purchased Signalway Antibody AP74647-2
T1 sequence (P47205 1-303): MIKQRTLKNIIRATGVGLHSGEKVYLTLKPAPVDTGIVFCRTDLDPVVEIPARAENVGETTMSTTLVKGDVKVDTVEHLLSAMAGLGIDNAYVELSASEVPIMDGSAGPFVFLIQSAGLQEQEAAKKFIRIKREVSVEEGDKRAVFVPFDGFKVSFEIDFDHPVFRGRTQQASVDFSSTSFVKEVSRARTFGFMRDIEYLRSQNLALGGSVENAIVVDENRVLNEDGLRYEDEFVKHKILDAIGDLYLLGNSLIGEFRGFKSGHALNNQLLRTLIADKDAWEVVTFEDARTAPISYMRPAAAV
Description: The following method was used to determine degrees of inhibition of the compounds of the present invention on the enzymatic activity of recombinant Pseudomonas aeruginosa LpxC in vitro.
The test process was briefly described as follows: the tested compound was first dissolved in DMSO to prepare a 10 mM storage solution. The reaction was carried out in a 96-well microplate. Firstly, 20 μL of recombinant Pseudomonas aeruginosa LpxC (purchased from Signalway Antibody, article number AP74647-2) was added into the wells, and the final concentrations were 5 nM respectively. 5 μL of the compound to be tested was added, diluted in 4-fold, with 8 concentration points, and the concentration range was 0.61-10000 nM. 5 μL of LpxC substrate UDP-3-O—(R-3-hydroxydecanoyl)-GlcNAc (purchased from Biosynth Carbosynth, article number mu75071) was added, wherein a final concentration of the substrate was […], and the substrate was incubated at 25 °C for 120 minutes. Subsequently, 20 μL of 2.0 mg/mL fluorescamine (purchased from sigma aldrich, article number F9015, wherein a solvent was dimethylformamide/acetonitrile (1:1)) was added to the reaction system, mixed evenly and reacted for 10 minutes. Finally, 50 μL of 200 mM sodium phosphate buffer solution (pH 8.0) was added to stop the reaction, and a microplate reader (BMG) was used for reading. An excitation wavelength and an emission wavelength were 390 nm and 495 nm respectively. Compared with the fluorescence intensity ratio of a control group (0.1% DMSO), the percentage inhibition rates of the compounds at each concentration were calculated, and the IC50 values of the compounds were obtained by performing nonlinear regression analysis with logarithmic value of the compound concentration-inhibition rate by GraphPad Prism 5 software, which can be seen in Table 1.

[2] = system: E. coli ATCC 25922; experiment: Antibacterial activity, minimum inhibitory concentration (MIC) in vitro, broth dilution; type: cell-based; settings: Escherichia coli, ATCC25922, 5×10^5 cfu/mL, 35 °C, 18-24 hours
Description: (§1) The minimum inhibitory concentration (MIC) in vitro was determined according to CLSI's guidelines, and a minimal broth dilution method was used.
(§2) The test process was briefly described as follows: the tested compound was dissolved in DMSO to prepare a storage solution of […], and then prepared into 11 two-fold-diluted 100× high-concentration working liquids (a final concentration of the system was 64 μg/mL to 0.06 μg/mL) by DMSO. Stains (K. pneumoniae ATCC13883, K. pneumoniae ATCC51504 and E. coli ATCC 25922) frozen at −80 °C with glycerin were inoculated to a solid agar culture medium, placed into an incubator for culturing for 18-24 hours at 35 °C to finish the preparation work of the strains. A proper amount of solid plate culture was collected, re-suspended in normal saline, and uniformly mixed. The turbidity of the bacterial suspension was adjusted to a proper turbidity by a turbidity meter, containing about 1×10^8 cfu/mL of bacteria. Then, the turbidity-regulated bacterial suspension was diluted with a test culture medium (type: CAMHIIB, purchased from BD company) to a bacterial concentration of 5×10^5 cfu/mL, thus finishing the preparation of an inoculation solution. 198 μL of the inoculation solution was inoculated into a 96-well plate, and added with 2 μL 100× high concentration working liquid of the compound, then the 96-well plate was placed at 35 °C for culturing for 18-24 hours.

[3] = system: K. pneumoniae ATCC51504; experiment: as above; type: cell-based; settings: Klebsiella pneumoniae, 5×10^5 cfu/mL, 35 °C, 18-24 hours
Description: as §1, §2

SMILES	IC50 [1]	MIC [2]	MIC [3]
C[C@H](O)c1nccn1Cc1cc(-c2ccc(C#CC3=CCN(C(=O)C4CC4)CC3)cc2)on1 [Example 36, (S)-cyclopropyl(4-((4-(3-((2-(1-hydroxyethyl)-1H-imidazol-1-yl)methyl)isoxazol-5-yl)phenyl)ethynyl)-3,6-dihydropyridin-1(2H)-yl)methanone]	19 nM	1 µg/mL (≈ 2.26 µM)	0.25 µg/mL (≈ 0.565 µM)
C[C@H](O)c1nccn1Cc1cc(-c2ccc(C#CC3=CCN(C(=O)c4cnccn4)CC3)cc2)on1 [Example 38, (S)-(4-((4-(3-((2-(1-hydroxyethyl)-1H-imidazol-1-yl)methyl)isoxazol-5-yl)phenyl)ethynyl)-3,6-dihydropyridin-1(2H)-yl)(pyrazin-2-yl)methanone]	22.7 nM	0.25 µg/mL (≈ 0.52 µM)	0.5 µg/mL (≈ 1.04 µM)
C[C@H](O)c1nccn1Cc1cc(-c2ccc(C#CC3=CCN(C(=O)c4ccnnc4)CC3)cc2)on1 [Example 39, (S)-(4-((4-(3-((2-(1-hydroxyethyl)-1H-imidazol-1-yl)methyl)isoxazol-5-yl)phenyl)ethynyl)-3,6-dihydropyridin-1(2H)-yl)(pyridazin-4-yl)methanone]	21.7 nM	2 µg/mL (≈ 4.16 µM)	1 µg/mL (≈ 2.08 µM)
C[C@H](O)c1nccn1Cc1cc(-c2ccc(C#CC3=CCN(C(=O)c4cncnc4)CC3)cc2)on1 [Example 40, (S)-(4-((4-(3-((2-(1-hydroxyethyl)-1H-imidazol-1-yl)methyl)isoxazol-5-yl)phenyl)ethynyl)-3,6-dihydropyridin-1(2H)-yl)(pyrimidin-5-yl)methanone]	21.4 nM	2 µg/mL (≈ 4.16 µM)	0.5 µg/mL (≈ 1.04 µM)
C[C@H](O)c1nccn1Cc1cc(-c2ccc(C#CC3=CCN(C(=O)C4CCOC4)CC3)cc2)on1 (stereo partly drawn) [Example 41, (4-((4-(3-((2-((S)-1-hydroxyethyl)-1H-imidazol-1-yl)methyl)isoxazol-5-yl)phenyl)ethynyl)-3,6-dihydropyridin-1(2H)-yl)(tetrahydrofuran-3-yl)methanone]	22.3 nM	1 µg/mL (≈ 2.12 µM)	0.25 µg/mL (≈ 0.529 µM)
C[C@H](O)c1nccn1Cc1cc(-c2ccc(C#CC3=CCN(C(=O)C4COCCN4)CC3)cc2)on1 (stereo partly drawn) [Example 42, (4-((4-(3-((2-((S)-1-hydroxyethyl)-1H-imidazol-1-yl)methyl)isoxazol-5-yl)phenyl)ethynyl)-3,6-dihydropyridin-1(2H)-yl)(morpholin-3-yl)methanone]	–	4 µg/mL (≈ 8.2 µM)	2 µg/mL (≈ 4.1 µM)
C[C@H](O)c1nccn1Cc1cc(-c2ccc(C#CC3=CCN(CCn4cncn4)CC3)cc2)on1 [Example 43, (S)-1-(1-((5-(4-((1-(2-(1H-1,2,4-triazol-1-yl)ethyl)-1,2,3,6-tetrahydropyridin-4-yl)ethynyl)phenyl)isoxazol-3-yl)methyl)-1H-imidazol-2-yl)ethan-1-ol]	25.8 nM	2 µg/mL (≈ 4.26 µM)	1 µg/mL (≈ 2.13 µM)
C[C@H](O)c1nccn1Cc1cc(-c2ccc(C#CC3=CCN(CCC#N)CC3)cc2)on1 [Example 44, (S)-3-(4-((4-(3-((2-(1-hydroxyethyl)-1H-imidazol-1-yl)methyl)isoxazol-5-yl)phenyl)ethynyl)-3,6-dihydropyridin-1(2H)-yl)propanenitrile]	24.9 nM	1 µg/mL (≈ 2.34 µM)	0.5 µg/mL (≈ 1.17 µM)
C[C@H](O)c1nccn1Cc1cc(-c2ccc(C#CC3=CCN(C(=O)c4cccnc4)CC3)cc2)on1 [Example 45, (S)-(4-((4-(3-((2-(1-hydroxyethyl)-1H-imidazol-1-yl)methyl)isoxazol-5-yl)phenyl)ethynyl)-3,6-dihydropyridin-1(2H)-yl)(pyridin-3-yl)methanone]	12.3 nM	1 µg/mL (≈ 2.09 µM)	0.5 µg/mL (≈ 1.04 µM)
C[C@H](O)c1nccn1Cc1cc(-c2ccc(C#CC3CC4(C3)CN(C(=O)c3ncn[nH]3)C4)cc2)on1 [Example 55, (S)-(6-((4-(3-((2-(1-hydroxyethyl)-1H-imidazol-1-yl)methyl)isoxazol-5-yl)phenyl)ethynyl)-2-azaspiro[3.3]heptan-2-yl)(1H-1,2,4-triazol-5-yl)methanone]	14.7 nM	2 µg/mL (≈ 4.14 µM)	2 µg/mL (≈ 4.14 µM)
C[C@H](O)c1nccn1Cc1cc(-c2ccc(C#CC3=CCN(C=O)CC3)cc2)on1 [Example 57, (S)-4-((4-(3-((2-(1-hydroxyethyl)-1H-imidazol-1-yl)methyl)isoxazol-5-yl)phenyl)ethynyl)-3,6-dihydropyridine-1(2H)-carbaldehyde]	29.4 nM	2 µg/mL (≈ 4.97 µM)	1 µg/mL (≈ 2.48 µM)
C[C@H](O)c1nccn1Cc1cc(-c2ccc(C#CC3=CCN(C(N)=O)CC3)cc2)on1 [Example 58, (S)-4-((4-(3-((2-(1-hydroxyethyl)-1H-imidazol-1-yl)methyl)isoxazol-5-yl)phenyl)ethynyl)-3,6-dihydropyridine-1(2H)-carboxamide]	19.2 nM	1 µg/mL (≈ 2.4 µM)	1 µg/mL (≈ 2.4 µM)
C[C@H](O)c1nccn1Cc1cc(-c2ccc(C#CC3=CCN(CC(N)=O)CC3)cc2)on1 [Example 59, (S)-2-(4-((4-(3-((2-(1-hydroxyethyl)-1H-imidazol-1-yl)methyl)isoxazol-5-yl)phenyl)ethynyl)-3,6-dihydropyridin-1(2H)-yl)acetamide]	23.8 nM	2 µg/mL (≈ 4.64 µM)	0.5 µg/mL (≈ 1.16 µM)
C[C@H](O)c1nccn1Cc1cc(-c2ccc(C#CC3=CCN(C(=O)N4CCOCC4)CC3)cc2)on1 [Example 60, (S)-(4-((4-(3-((2-(1-hydroxyethyl)-1H-imidazol-1-yl)methyl)isoxazol-5-yl)phenyl)ethynyl)-3,6-dihydropyridin-1(2H)-yl)(morpholino)methanone]	25.3 nM	2 µg/mL (≈ 4.1 µM)	1 µg/mL (≈ 2.05 µM)
C[C@H](O)c1nccn1Cc1cc(-c2ccc(C#CC3=CCN(C(=O)c4ccccn4)CC3)cc2)on1 [Example 61, (S)-(4-((4-(3-((2-(1-hydroxyethyl)-1H-imidazol-1-yl)methyl)isoxazol-5-yl)phenyl)ethynyl)-3,6-dihydropyridin-1(2H)-yl)(pyridin-2-yl)methanone]	11.5 nM	1 µg/mL (≈ 2.09 µM)	0.5 µg/mL (≈ 1.04 µM)
CC(=O)N1CC=C(C#Cc2ccc(-c3cc(Cn4ccnc4[C@H](C)O)no3)cc2)CC1 [Example 62, (S)-1-(4-((4-(3-((2-(1-hydroxyethyl)-1H-imidazol-1-yl)methyl)isoxazol-5-yl)phenyl)ethynyl)-3,6-dihydropyridin-1(2H)-yl)ethan-1-one]	18 nM	0.5 µg/mL (≈ 1.2 µM)	0.5 µg/mL (≈ 1.2 µM)
C[C@H](O)c1nccn1Cc1cc(-c2ccc(C#CC3=CCN(C(=O)CO)CC3)cc2)on1 [Example 63, (S)-2-hydroxy-1-(4-((4-(3-((2-(1-hydroxyethyl)-1H-imidazol-1-yl)methyl)isoxazol-5-yl)phenyl)ethynyl)-3,6-dihydropyridin-1(2H)-yl)ethan-1-one]	23.6 nM	0.5 µg/mL (≈ 1.16 µM)	0.5 µg/mL (≈ 1.16 µM)
C[C@H](O)c1nccn1Cc1cc(-c2ccc(C#CC3=CCN(C(=O)C4COCCO4)CC3)cc2)on1 (stereo partly drawn) [Example 64, (1,4-dioxan-2-yl)(4-((4-(3-((2-((S)-1-hydroxyethyl)-1H-imidazol-1-yl)methyl)isoxazol-5-yl)phenyl)ethynyl)-3,6-dihydropyridin-1(2H)-yl)methanone]	19.1 nM	1 µg/mL (≈ 2.05 µM)	0.5 µg/mL (≈ 1.02 µM)

From patent publication US20260365641A1, “Aromatic Acetylene Derivative, Preparation Method Therefor, And Use Thereof” (Zhejiang Hisun Pharmaceutical Co., Ltd., priority 2022, published 2026)
